Measurements taken from patent US8263754B2, “Amphiphiles for protein solubilization and stabilization” (Wisconsin Alumni Research Foundation, priority 2008, dated 2012).

assay: Critical micelle concentration (CMC) by dye solubilization (Orange OT or DPH); type: physicochemical; details: determined by DPH (diphenylhexatriene) or Orange OT
Source text: Aqueous solubilization of Orange OT was used to determine critical micelle concentrations (CMC). […] Facile self-association of these amphiphiles under these conditions may be hindered by the hydrophilicity and/or steric bulk of the triglucoside and dimaltoside headgroups.
The Critical Micelle Concentrations (CMCs) of compounds of the invention can be determined by standard techniques known to those of skill in the art. For example, CMCs of the carbohydrate-based amphiphiles described herein can be determined by monitoring uptake of a dye (e.g., Orange OT or 1,6-diphenylhexatriene) with increasing detergent concentration, monitored by UV-visible or fluorescence spectroscopy.

| Structure (SMILES) | CMC [mM] | CMC (%) |
| --- | --- | --- |
| CCCCCCCCC(=O)NC(CO[C@@H]1O[C@H](CO)[C@@H](O)[C@H](O)[C@H]1O)CO[C@@H]1O[C@H](CO)[C@@H](O)[C@H](O)[C@H]1O [C8-MPA2] | 77 | 4.3 |
| CCCCCCCCCCC(=O)NC(CO[C@@H]1O[C@H](CO)[C@@H](O)[C@H](O)[C@H]1O)CO[C@@H]1O[C@H](CO)[C@@H](O)[C@H](O)[C@H]1O [C10-MPA 2] | 8.1 | 0.47 |
| CCCCCCCCCCCCCCC(=O)NC(CO[C@@H]1O[C@H](CO)[C@@H](O)[C@H](O)[C@H]1O)CO[C@@H]1O[C@H](CO)[C@@H](O)[C@H](O)[C@H]1O [C14-MPA2] | 0.17 | 0.011 |
| CC(C)(C)CC(C)(C)c1ccc(OCC(=O)NC(COC2OC(CO)C(O)C(O)C2O)COC2OC(CO)C(O)C(O)C2O)cc1 (stereo not shown) [CGT2] | 2.6 | 0.17 |
| O=C(NCCOC1OC(CO)C(OC2OC(CO)C(O)C(O)C2O)C(O)C1O)C(c1ccccc1)c1ccccc1 (stereo not shown) [DPA 68] | 85.3 | 4.95 |
| O=C(NCCO[C@@H]1O[C@H](CO)[C@@H](O[C@H]2O[C@H](CO)[C@@H](O)[C@H](O)[C@H]2O)[C@H](O)[C@H]1O)C(C1CCCCC1)C1CCCCC1 [DPA 69] | 13.9 | 0.82 |
| CCCCC(CCCC)(CC(=O)NC(CO[C@@H]1O[C@H](CO)[C@@H](O)[C@H](O)[C@H]1O)(CO[C@@H]1O[C@H](CO)[C@@H](O)[C@H](O)[C@H]1O)CO[C@@H]1O[C@H](CO)[C@@H](O)[C@H](O)[C@H]1O)c1ccc(-c2ccccc2)cc1 [TPA13] | 3.7 | 0.34 |
| CCCCC(CCCC)(CC(=O)NC(CO[C@@H]1O[C@H](CO)[C@@H](O)[C@H](O)[C@H]1O)(CO[C@@H]1O[C@H](CO)[C@@H](O)[C@H](O)[C@H]1O)CO[C@@H]1O[C@H](CO)[C@@H](O)[C@H](O)[C@H]1O)c1ccc(C(C)(C)C)cc1 [TPA14] | 3.4 | 0.31 |
| CCCCC(CCCC)(CC(=O)NC(COC1OC(CO)C(OC2OC(CO)C(O)C(O)C2O)C(O)C1O)COC1OC(CO)C(OC2OC(CO)C(O)C(O)C2O)C(O)C1O)c1ccc(-c2ccccc2)cc1 (stereo not shown) [TPA15] | 1.7 | 0.18 |
| CCCCC(CCCC)(CC(=O)NC(CO[C@@H]1O[C@H](CO)[C@@H](O[C@H]2O[C@H](CO)[C@@H](O)[C@H](O)[C@H]2O)[C@H](O)[C@H]1O)CO[C@@H]1O[C@H](CO)[C@@H](O[C@H]2O[C@H](CO)[C@@H](O)[C@H](O)[C@H]2O)[C@H](O)[C@H]1O)c1ccc(C(C)(C)C)cc1 [TPA16] | 3.3 | 0.34 |
| CCCCCCC(CCCCCC)(CC(=O)NC(CO[C@@H]1O[C@H](CO)[C@@H](O)[C@H](O)[C@H]1O)(CO[C@@H]1O[C@H](CO)[C@@H](O)[C@H](O)[C@H]1O)CO[C@@H]1O[C@H](CO)[C@@H](O)[C@H](O)[C@H]1O)c1ccccc1 [TPA17] | 1.4 | 0.13 |
| CCCCCCC(CCCCCC)(CC(=O)NC(CO[C@@H]1O[C@H](CO)[C@@H](O[C@H]2O[C@H](CO)[C@@H](O)[C@H](O)[C@H]2O)[C@H](O)[C@H]1O)CO[C@@H]1O[C@H](CO)[C@@H](O[C@H]2O[C@H](CO)[C@@H](O)[C@H](O)[C@H]2O)[C@H](O)[C@H]1O)c1ccccc1 [TPA18] | 0.3 | 0.03 |
| CCCCC(CCCC)(CC(=O)NC(CO[C@@H]1O[C@H](CO)[C@@H](O)[C@H](O)[C@H]1O)(CO[C@@H]1O[C@H](CO)[C@@H](O)[C@H](O)[C@H]1O)CO[C@@H]1O[C@H](CO)[C@@H](O)[C@H](O)[C@H]1O)C1CCCCC1 [TPA22] | 3.7 | 0.32 |
| CCCCC(CCCC)(CC(=O)NC(CO[C@@H]1O[C@H](CO)[C@@H](O[C@H]2O[C@H](CO)[C@@H](O)[C@H](O)[C@H]2O)[C@H](O)[C@H]1O)CO[C@@H]1O[C@H](CO)[C@@H](O[C@H]2O[C@H](CO)[C@@H](O)[C@H](O)[C@H]2O)[C@H](O)[C@H]1O)C1CCCCC1 [TPA24] | 1.9 | 0.19 |
| CCCCC(CCCC)(CC(=O)NC(CO[C@@H]1O[C@H](CO)[C@@H](O)[C@H](O)[C@H]1O)CO[C@@H]1O[C@H](CO)[C@@H](O)[C@H](O)[C@H]1O)CC(C)C [TPA25] | 4.1 | 0.26 |
| CCCCC(CCCC)(CC(=O)NC(CO[C@@H]1O[C@H](CO)[C@@H](O)[C@H](O)[C@H]1O)CO[C@@H]1O[C@H](CO)[C@@H](O)[C@H](O)[C@H]1O)c1ccc(I)cc1 [TPA 28] | 0.89 | 0.07 |
| CCCCC(CCCC)(CC(=O)NC(COC1OC(CO)C(O)C(O)C1O)COC1OC(CO)C(O)C(O)C1O)c1ccc(C)cc1 (stereo not shown) [TPA 31] | 2.4 | 0.16 |
| CCCCC(CCCC)(CC(=O)NC(CO[C@@H]1O[C@H](CO)[C@@H](O)[C@H](O)[C@H]1O)CO[C@@H]1O[C@H](CO)[C@@H](O)[C@H](O)[C@H]1O)c1ccc(C(C)C)cc1 [TPA 32] | 1.3 | 0.091 |

| Structure (SMILES) | CMC [mM] | CMC (%) |
| --- | --- | --- |
| CCCCC(CCCC)(CC(=O)NC(CO[C@@H]1O[C@H](CO)[C@@H](O)[C@H](O)[C@H]1O)CO[C@@H]1O[C@H](CO)[C@@H](O)[C@H](O)[C@H]1O)c1ccc(C(C)(C)C)cc1 [TPA 33] | 0.42 | 0.03 |
| CCCCC(CCCC)(CC(=O)NC(COC1OC(CO)C(O)C(O)C1O)COC1OC(CO)C(O)C(O)C1O)c1ccc(-c2ccccc2)cc1 (stereo not shown) [TPA 34] | 0.14 | 0.01 |
| CCCCCC(CCCCC)(CC(=O)NC(CO[C@@H]1O[C@H](CO)[C@@H](O)[C@H](O)[C@H]1O)CO[C@@H]1O[C@H](CO)[C@@H](O)[C@H](O)[C@H]1O)c1ccccc1 [TPA 35] | 1.2 | 0.083 |
| CCCCCCC(CCCCCC)(CC(=O)NC(CO[C@@H]1O[C@H](CO)[C@@H](O)[C@H](O)[C@H]1O)CO[C@@H]1O[C@H](CO)[C@@H](O)[C@H](O)[C@H]1O)c1ccccc1 [TPA 36] | 0.56 | 0.04 |
| O=C(NCCO[C@H]1OC(CO)[C@H](O)C(O)[C@H]1O)C12CC3CC(CC(C3)C1)C2 (stereo partly shown) [TPA 41] | 180 | 6.9 |
| CC12CC3CC(C)(C1)CC(CC(=O)NCCO[C@H]1OC(CO)[C@H](O[C@@H]4OC(CO)[C@H](O)C(O)[C@H]4O)C(O)[C@H]1O)(C3)C2 (stereo partly shown) [TPA 44] | 19.1 | 1.1 |
| CCCC[C@]1(CC(=O)NC(CO[C@H]2OC(CO)[C@H](O)C(O)[C@H]2O)CO[C@H]2OC(CO)[C@H](O)C(O)[C@H]2O)C2C[C@@H]3C[C@H](C2)C[C@@H]1C3 (stereo partly shown) [TPA 45] | 6.4 | 0.41 |
| CCCC[C@]1(CC(=O)NCCO[C@H]2OC(CO)[C@H](O[C@@H]3OC(CO)[C@H](O)C(O)[C@H]3O)C(O)[C@H]2O)C2C[C@@H]3C[C@H](C2)C[C@@H]1C3 (stereo partly shown) [TPA 46] | 2.6 | 0.16 |
| CC(CC(=O)NC(CO[C@@H]1O[C@H](CO)[C@@H](O)[C@H](O)[C@H]1O)CO[C@@H]1O[C@H](CO)[C@@H](O)[C@H](O)[C@H]1O)(C1CCCCC1)C1CCCCC1 [TPA 47] | 4.7 | 0.3 |
| CCCCC(CC(=O)NC(CO[C@@H]1O[C@H](CO)[C@@H](O)[C@H](O)[C@H]1O)CO[C@@H]1O[C@H](CO)[C@@H](O)[C@H](O)[C@H]1O)(C1CCCCC1)C1CCCCC1 [TPA 49] | 0.64 | 0.04 |
| O=C(CC1(C2CCCCC2)CCCCC1)NC(CO[C@@H]1O[C@H](CO)[C@@H](O)[C@H](O)[C@H]1O)CO[C@@H]1O[C@H](CO)[C@@H](O)[C@H](O)[C@H]1O [TPA 50] | 19.2 | 1.19 |
| CCCCCC[C@]1(CC(=O)NC(CO[C@H]2OC(CO)[C@H](O)C(O)[C@H]2O)CO[C@H]2OC(CO)[C@H](O)C(O)[C@H]2O)C2C[C@@H]3C[C@H](C2)C[C@@H]1C3 (stereo partly shown) [TPA 52] | 1.1 | 0.075 |
| O=C(CC1(C2CCCCC2)CCCCCC1)NC(CO[C@@H]1O[C@H](CO)[C@@H](O)[C@H](O)[C@H]1O)CO[C@@H]1O[C@H](CO)[C@@H](O)[C@H](O)[C@H]1O [TPA 53] | 13.8 | 0.88 |
| O=C(CC1(C2CCCCC2)CCCCCCC1)NC(CO[C@@H]1O[C@H](CO)[C@@H](O)[C@H](O)[C@H]1O)CO[C@@H]1O[C@H](CO)[C@@H](O)[C@H](O)[C@H]1O [TPA 54] | 4.5 | 0.29 |
| CCCCC(CCCC)(CC(=O)NC(COC1OC(CO)C(O)C(O)C1O)COC1OC(CO)C(O)C(O)C1O)C1CCCC1 (stereo not shown) [TPA 57] | 2.25 | 0.15 |
| CCCCCC(CC(=O)NC(CO[C@@H]1O[C@H](CO)[C@@H](O)[C@H](O)[C@H]1O)CO[C@@H]1O[C@H](CO)[C@@H](O)[C@H](O)[C@H]1O)(C1CCCCC1)C1CCCCC1 [TPA 73] | 0.21 | 0.014 |
| CC(C)(C)CC(C)(C)c1ccc(OCC(=O)NCCC[N+](C)(C)[O-])cc1 [Triton-N-oxide] | 1.1 | 0.04 |
